Test results from US7371379B2, “Dosages for treatment with anti-ErbB2 antibodies” (Genentech, Inc., priority 1999, dated 2008).

What was measured:
[1] = system: ErbB2-overexpressing metastatic breast cancer; assay: clinical study of chemotherapy with or without HERCEPTIN (Example 1); format: in vivo, human
From the text: Eligibility Criteria Patients had to fulfill all of the following criteria to be eligible for study admission: • Metastatic breast cancer • Overexpression of the ErbB2 (HER2) oncogene (2+ to 3+ as determined by immunohistochemistry or fluorescence in situ hybridization (FISH). [Tumor expression of ErbB2 can be determined by immunohistochemical analysis, as previously described (Slamon et al., [1987] and [1989], supra), of a set of thin sections prepared from the patient's paraffin-archived tumor blocks. The primary detecting antibody used is murine 4D5 MAb, which has the same CDRs as the humanized antibody used for the treatment.
Beginning on day 7, patients received weekly administration of 2 mg/kg antibody (i.v.) over a 90-minute period.
The patients received one of two chemotherapy regimens for a minimum of six cycles, provided their disease was not progressing: a) cyclophosphamide and doxorubicin or epirubicin (AC), if patients have not received anthracycline therapy in the adjuvant setting, or b) paclitaxel (T, TAXOL®), if patients have received any anthracycline therapy in the adjuvant setting. […] Subsequent doses of the antibody were given immediately before chemotherapy administration, if the initial dose of the antibody was well tolerated. If the first dose of the antibody was not well tolerated, subsequent infusions continued to precede chemotherapy administration by 24 hours. Patients were permitted to continue receiving chemotherapy beyond six cycles if, in the opinion of the treating physician, they were continuing to receive treatment benefit.
Cyclophosphamide (600 mg/m^2) was given either by iv push over a minimum period of 3 minutes or by infusion over a maximum period of 2 hours.
Doxorubicin (60 mg/m^2) or epirubicin (75 mg/m^2) were given either by slow iv push over a minimum period of 3-5 minutes or by infusion over a maximum period of 2 hours, according to institutional protocol.
All patients receiving paclitaxel were premedicated with dexamethasone (or its equivalent) 20 mg×2, administered orally 12 and 6 hours prior to paclitaxel; diphenhydramine (or its equivalent) 50 mg, iv, administered 30 minutes prior to paclitaxel, and […] (or another H2 blocker) 300 mg, iv, administered 30 minutes prior to paclitaxel.
Progressive disease also includes those instances when new lesions have appeared.
Complete Response Disappearance of all radiographically and/or visually apparent tumor for a minimum of 4 weeks. Skin and chest wall complete responses had to be confirmed by biopsy. […]
Time to disease progression (TTP) was calculated from the beginning of therapy to progression. Confidence limits for response rates were calculated using the exact method for a single proportion. […]

BT-474M1 [2] = assay: nude mouse xenograft tumor volume, i.v. bolus versus s.c. bolus (Example 4); format: in vivo; details: Group 1, IV Control
Description: (§1) This study was set up as disclosed herein in Example 3 for the comparison of intravenous bolus and subcutaneous infusion delivery. A sustained release estrogen implant was inserted subcutaneously one day before tumor cell innoculation as described in Example 3. Six days after tumor cell innoculation, the initial tumor measurement was performed. […] Animals were dosed once weekly for 4 weeks.
(§2) The mice were treated according to the information in Table 4 and using the techniques disclosed in Example 3. […] The control E25 antibody serum concentration was determined according to standard immunoassay techniques.
For this study, efficacy was measured as a decrease in tumor volume. Tumor volume was measured twice weekly.

BT-474M1 [3] = assay: nude mouse xenograft tumor volume, i.v. bolus versus s.c. infusion (Example 3); format: in vivo; details: control s.c. infusion
Description: A study in a nude mouse xenograft model, which incorporates a human breast cancer cell line that naturally overexpresses the HER2 gene (BT-474M1, derived from BT-474 cells, ATCC Accession number HTB-20), comparing tumor volume as a function of i.v. bolus versus s.c. infusion was performed as follows. In the first study athymic nude nu nu 7-9 week old female mice were obtained from Taconic Inc (Germantown, N.Y.). To initiate tumor development, each mouse was inoculated subcutaneously with 3×10^6 BT474M1 cells suspended in Matrigel™. When tumor nodules reached a volume of approximately 100 mm^3, animals were randomized to 4 treatment groups.
(§3) Animals were exposed to estrogen by subcutaneous sustained release estrogen pellet 9 days before the start of dosing to promote growth of grafted tumor cells. The animals were inoculated with the BT474M 1 cells 8 days before the beginning of treatment and tumors were allowed to grow. […] The study groups were treated until day 35. […] Tumor volumes were measured two days before dosing began and twice per week from day 6 to day 35 in the study for which data is tabulated below. Tumors were measured in three dimensions and volumes were expressed in mm^3. Efficacy was determined by a statistical comparison (ANOVA) of tumor volumes of test animals relative to untreated control animals.

[4] = serum antibody concentration in xenograft mice (Example 3); format: in vivo, mouse; details: control s.c. infusion
Description: as §3

[5] = serum antibody concentration in xenograft mice (Example 4); format: in vivo, mouse; details: Group 1, IV, MD 4 mg/kg
Description: as §1, §2

[6] = median follow-up 10.5 months, H 4 mg/kg then 2 mg/kg weekly i.v.

| Molecule | syndrome of myocardial dysfunction ([1]; Grade ¾) [%] | AE(%) overall severe adverse events ([1]; median follow-up 10.5 months) [%] | RR(%) [1, 6] [%] | TTP(months) [1, 6] [months] | Tumor Vol. Day 28, mm^3 (BT-474M1 [2]) [mm^3] | Tumor Vol. Day 31, mm^3 (BT-474M1 [2]) [mm^3] | Tumor Vol. Day 6, mm^3 (BT-474M1 [2]; LD 8, MD 4 mg/kg/week, initial measurement before first dose) [mm^3] | Day 6-Day 31 Area Under Curve Tumor Vol., mm^3 (BT-474M1 [2]; Day 17 excluded) [mm^3] | Tumor Volume (area under curve) Day 6-Day 35 (BT-474M1 [3]) | Tumor Volume (mm^3), Day 35 (BT-474M1 [3]; IV LD 2.20 mg/kg, infusate […]) [mm^3] | HERCEPTIN Serum Conc. (μg/ml), Day 27 [4] [µg/mL] | Serum Concentration, Mean ([5]; Day 0) [µg/mL] | Serum Concentration, Mean ([5]; Day 7) [µg/mL] | Serum Concentration, Mean ([5]; Day 14) [µg/mL] | Serum Concentration, Mean ([5]; Day 21) [µg/mL] |
| --- | --- | --- | --- | --- | --- | --- | --- | --- | --- | --- | --- | --- | --- | --- | --- |
| CC(=O)O[C@H]1C(=O)[C@@]2(C)[C@H]([C@H](OC(=O)c3ccccc3)[C@]3(O)C[C@H](OC(=O)[C@H](O)[C@@H](NC(=O)c4ccccc4)c4ccccc4)C(C)=C1C3(C)C)[C@]1(OC(C)=O)CO[C@@H]1C[C@@H]2O [T, paclitaxel] | 0 | 59 | 25.0 | 4.2 | – | – | – | – | – | – | – | – | – | – | – |
| rhu MAb E25: nonrelevant antibody E25 (non-specific for HER2 receptor, but a member of the monoclonal IgG class) | – | – | – | – | 1530 | 1630 | 321 | 13600 | 5650 ± 4700 | 764 ± 700 | 4.16 ± 1.94 | 0 | 25.9 | 34.6 | 38.5 |
